# Experiments:
# Type in all cases: cell-based
# [1] = test system: human peripheral blood mononuclear cells (PBMCs); assay: Cell proliferation of LPS-challenged PBMCs by CellTiter-Glo (CTG); settings: for CTG signal: human PBMCs, 72 h (LPS control 84.50); for effect on cell proliferation: LPS-treated human PBMCs, CTG
# Excerpt: This study was aimed to test the effect of 12 compounds (THCA, Ia1, Ia5, Ia6, Ia9, Ia11, Ia15, Ia17, Ia24, Ia25, Ia27, and Ia28) on human peripheral blood mononuclear cells (PBMCs) challenged by lipopolysaccharide (LPS) through monitoring multiple inflammatory endpoints.
# Blood samples were collected from healthy volunteers according to protocols that have been reviewed and approved by the Chempartner Institutional Ethic Committee (IEC) upon signing an Informed Consent Form (ICF).
# Fresh PBMCs were isolated and seeded into 96-well plate, and diluted solutions of the tested compounds and 0.1 μg/mL LPS were then added (in triplicates). To serve as control, 3 wells with PBMCs only, 3 wells with 0.1 μg/mL LPS, and 2 wells with 1 μg/mL dexamethasone (Dex) and 0.1 μg/mL LPS were included. After 72 hours incubation, supernatant was collected for tumor necrosis factor-α (TNF-α) measurement by enzyme-linked immunosorbent assay (ELISA), and cell pellets were harvested for cell proliferation measurement by CellTiter-Glo® Luminescent Cell Viability Assay (CTG).
# The human blood sample from an individual donor was diluted by the same volume of sterile phosphate buffered solution (PBS) and mixed sufficiently by gentle shake. 15 mL Lymphoprep™ medium was transferred into a new 50 mL centrifuge tube, and the diluted blood sample (30 mL) was then carefully added onto the surface of the medium, which consequently contained Ficoll 400 and blood in a volume ratio of 1:2. Four interfaces were observed after centrifugation, which are, from top to bottom, layers of plasma, mononuclear cells, Ficoll medium, and red blood cells (RBCs). Plasma was absorbed, and mononuclear cells were then transferred into another new sterile centrifuge tube. Then, sterile PBS buffer was added into the collected PBMCs for washing, at a volume ratio of 3:1. PBMCs were washed with 5-10 mL PBS twice before cell counting with cytometer. Cells were centrifuged at 350×g, for 10 min, at 20° C. with the acceleration (5) and deceleration (5) settings during the centrifugation. The cells were resuspended with RPMI 1640 complete medium (containing 10% FBS) for assay, and the density was adjusted with RPMI 1640 complete medium to the final concentration of 2E6 cells/mL. Cells suspension of the PBMCs (100 μL/well) were seeded into 96-well plate (#3903).
# Diluted solutions of the tested compounds were prepared with RPMI 1640 complete medium according to the following layout. Compounds were prepared at 5-fold of concentration (50 μM), and then were diluted to the working concentration of 10 μM with RPMI 1640 complete medium and made 10-fold serially dilution (2 points). The diluted compounds (50 μL/well) were added to the indicated wells, and the plate was incubated at 37° C., 5% CO2, for 72 h.
# LPS (0.1 μg/mL, 100 μL) was added into each well. Dex (1 μg/mL) was included as a positive control. Plate was incubated at 37° C., 5% CO2 for 72 h. Supernatant was collected to measure TNF-α by ELISA. Cell proliferation was detected by CTG.
# [2] = test system: AsPC-1, pancreas, ductal carcinoma; assay: CellTiter-Glo cell viability assay, cancer cell cytotoxicity/anti-proliferation panel (Chempartner); settings: for Inhibition: AsPC-1, 72 hours, compounds 10 μM starting, STS 2 μM starting, 10-pt, 3-fold dilution; for IC50: Homo sapiens, ASPC1, 72 h, read-out: IC50 (absolute IC50)
# [3] = test system: PC-3 ATCC prostate adenocarcinoma; assay: as above
SMILES,CTG signal ([1]; compound 1 μM + 0.1 μg/mL LPS),CTG signal ([1]; compound 10 μM + 0.1 μg/mL LPS),effect on cell proliferation [1],Inhibition [2] [%],IC50 [2] [µM],"IC50 ([3]; 72 h, read-out: IC50 (absolute IC50)) [µM]","Inhibition ([3]; PC-3, 72 hours, compounds 10 μM starting, STS 2 μM starting, 10-pt, 3-fold dilution) [%]"
"CCCCCc1cc2c(c(O)c1C(=O)O)[C@@H]1C=C(C)CC[C@H]1C(C)(C)O2 [THCA, tetrahydrocannabinolic acid, reference compound]",74.89 10^4,75.54 10^4,,,,,
"CCCCCc1cc2c(c(O)c1C(=O)NCCN(C)C)[C@@H]1C=C(C)CC[C@H]1C(C)(C)O2 [Ia6, (6aR,0aR)—N-(2-(dimethylamino)ethyl)-1-hydroxy-6,6,9-trimethyl-3-pentyl-6a,7,8,10a-tetrahydro-6H-benzo[c]chromene-2-carboxamide]",80.67 10^4,37.67 10^4,inhibition of cell proliferation,54.46,9.1,,
"C=C(C)[C@@H]1CCC(C)=C[C@H]1c1c(O)cc(CCCCC)c(C(=O)NCCCN2CCOCC2)c1O [Ia28, (1′R,2′R)-2,6-dihydroxy-5′-methyl-N-(3-morpholinopropyl)-4-pentyl-2′-(prop-1-en-2-yl)-1′,2′,3′,4′-tetrahydro-[1,1′-biphenyl]-3-carboxamide]",76.24 10^4,72.61 10^4,,,,,
"CCCCCc1cc2c(c(O)c1C(=O)NCCCN1CCOCC1)[C@@H]1C=C(C)CC[C@H]1C(C)(C)O2 [Ia9, (6aR,0aR)-1-hydroxy-6,6,9-trimethyl-N-(3-morpholinopropyl)-3-pentyl-6a,7,8,10a-tetrahydro-6H-benzo[c]chromene-2-carboxamide]",77.55 10^4,23.31 10^4,inhibition of cell proliferation,64.62,7.38,9.94,61.13
